molecular target: human RIP1 kinase domain (2-375) (Homo sapiens (Human), UniProt Q13546); assay: biochemical; assay type: biochemical; details: Table 1; apparent Ki (Morrison tight-binding fit); 50 nM RIP1 kinase domain, 50 uM ATP, 2 hours incubation; read-out: RIP1 Ki
Summary of the method: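 Ki^app comes from Morrison tight-binding fits of fractional activity versus compound concentration. Activity was read as ADP production, via tracer displacement lowering fluorescence polarization (633 nm laser). Conditions: 2 h, 50 nM insect-cell-expressed enzyme, 50 uM ATP, 30 mM MgCl2, 1 mM DTT, 0.5% DMSO, pH 7.5 Hepes.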

Chain of human RIP1 kinase domain (2-375) (Q13546 2-375): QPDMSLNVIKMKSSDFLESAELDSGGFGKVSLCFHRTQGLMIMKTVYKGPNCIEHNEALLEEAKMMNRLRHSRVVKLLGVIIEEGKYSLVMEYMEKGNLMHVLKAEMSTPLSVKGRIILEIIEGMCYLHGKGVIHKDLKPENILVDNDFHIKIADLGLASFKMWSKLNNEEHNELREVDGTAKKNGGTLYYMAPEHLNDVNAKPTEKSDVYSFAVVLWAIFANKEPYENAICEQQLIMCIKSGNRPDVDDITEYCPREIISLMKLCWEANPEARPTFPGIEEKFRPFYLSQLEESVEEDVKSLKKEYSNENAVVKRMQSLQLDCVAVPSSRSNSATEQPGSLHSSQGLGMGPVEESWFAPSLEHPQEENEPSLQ

First: CN1C(=O)[C@@H](NC(=O)c2n[nH]c3c2CC2CC2C3)COc2ccccc21 (stereo partly drawn) [Example 56, N-((S)-5-methyl-4-oxo-2,3,4,5-tetrahydrobenzo[b][1,4]oxazepin-3-yl)-1,4,4a,5,5a,6-hexahydrocyclopropa[f]indazole-3-carboxamide]
Second: CC1Cn2c(cnc2C(=O)N[C@H]2COc3ccccc3N(C)C2=O)CO1 (stereo partly drawn) [Example 10, 6-methyl-N—((S)-5-methyl-4-oxo-2,3,4,5-tetrahydrobenzo[b][1,4]oxazepin-3-yl)-6,8-dihydro-5H-imidazo[5,1-c][1,4]oxazine-3-carboxamide]
The Ki of the first is 2.8-fold lower: 0.922 µM for the first, 2.6 µM for the second.

same assay, conditions: Table 3; apparent Ki (Morrison tight-binding fit); 50 nM RIP1 kinase domain, 50 uM ATP, 2 hours incubation; read-out: Ki

`Cc1cc2n(n1)CCC(NC(=O)c1ncn(Cc3ccccc3)n1)C(=O)N2C` (stereo not shown) [Example 333, 1-benzyl-N-(2,4-dimethyl-5-oxo-5,6,7,8-tetrahydro-4H-pyrazolo[1,5-a][1,3]diazepin-6-yl)-1H-1,2,4-triazole-3-carboxamide] gave a Ki of 0.068 µM.

same assay, conditions: Table 5; apparent Ki (Morrison tight-binding fit); 50 nM RIP1 kinase domain, 50 uM ATP, 2 hours incubation; read-out: Ki

Going from `CN1C(=O)[C@@H](NC(=O)c2cn3c(C(F)(F)F)cccc3n2)COc2ccccc21` (single isomer, unassigned) [Example 792] to `Cc1cc2n(n1)CC[C@H](NC(=O)c1ccn(Cc3ccccc3)n1)C(=O)N2C` [Example 741, 1-benzyl-N-[(6S)-2,4-dimethyl-5-oxo-7,8-dihydro-6H-pyrazolo[1,5-a][1,3]diazepin-6-yl]pyrazole-3-carboxamide], the Ki rises from 0.07 µM to 0.14 µM (2-fold).

`CN1C(=O)[C@@H](NC(=O)c2ncn(Cc3ccccc3)n2)CCn2nc(CNCC(F)(F)F)cc21` (single isomer, unassigned) [Example 789] was tested, and the Ki was 0.068 µM.

same assay, conditions: human RIP1 kinase domain (2-375), 50 uM ATP, 2 hours incubation, Transcreener ADP assay; read-out: RIP1 Ki

Compared with `CN1C(=O)C(NC(=O)c2ncn(Cc3ccccc3)n2)CCn2nc(C3CC3(F)F)cc21` (stereo not shown) [Example 134, 1-benzyl-N-(2-(2,2-difluorocyclopropyl)-4-methyl-5-oxo-5,6,7,8-tetrahydr-4H-pyrazolo[1,5-a][1,3]diazepin-6-yl)-1H-1,2,4-triazole-3-carboxamide], `CN1C(=O)[C@@H](NC(=O)c2ncn(Cc3ccccc3)n2)CCn2nc([C@@H]3CC3(F)F)cc21` [Example 147, 1-benzyl-N-((S)-2-((S)-2,2-difluorocyclopropyl)-4-methyl-5-oxo-5,6,7,8-tetrahydro-4H-pyrazolo[1,5-a][1,3]diazepin-6-yl)-1H-1,2,4-triazole-3-carboxamide] is 1.6-fold lower in Ki: 0.0736 µM for the first, 0.0462 µM for the second.

Compared with `Cc1cc2n(n1)CC[C@H](NC(=O)c1ncn(CC3CCCC3)n1)C(=O)N2C` [Example 162, (S)-1-(cyclopentylmethyl)-N-(2,4-dimethyl-5-oxo-5,6,7,8-tetrahydro-4H-pyrazolo[1,5-a][1,3]diazepin-6-yl)-1H-1,2,4-triazole-3-carboxamide], `CN1C(=O)C(NC(=O)c2n[nH]c(Cc3ccccc3)n2)CCn2nc(-c3ccccc3)cc21` (stereo not shown) [Example 209, 5-benzyl-N-(4-methyl-5-oxo-2-phenyl-5,6,7,8-tetrahydro-4H-pyrazolo[1,5-a][1,3]diazepin-6-yl)-1H-1,2,4-triazole-3-carboxamide] is 2.1-fold higher in Ki: 0.0363 µM for the first, 0.0756 µM for the second.

With `CN1C(=O)[C@@H](NC(=O)c2cc3c(cn2)cnn3C2CCOC2)COc2ccccc21` (stereo partly drawn) [Example 128, N—((S)-5-methyl-4-oxo-2,3,4,5-tetrahydrobenzo[b][1,4]oxazepin-3-yl)-1-(tetrahydrofuran-3-yl)-1H-pyrazolo[4,3-c]pyridine-6-carboxamide] the Ki was 0.0614 µM.

same assay, conditions: human RIP1 kinase domain (2-375), Transcreener ADP assay, 50 uM ATP, 2 hours incubation; read-out: RIP1 Ki

`CC[C@@]1(C)OCc2cnc(C(=O)NC3CCn4cncc4N(C)C3=O)cc21` (stereo partly drawn) [Example 294, (1R)-1-ethyl-1-methyl-N-(1-methyl-2-oxo-2,3,4,5-tetrahydro-1H-imidazo[1,5-a][1,3]diazepin-3-yl)-1,3-dihydrofuro[3,4-c]pyridine-6-carboxamide] and `Cc1cc2n(n1)CC[C@H](NC(=O)c1ncn(CC3(C)CC3)n1)C(=O)N2C` [Example 289, (S)—N-(2,4-dimethyl-5-oxo-5,6,7,8-tetrahydro-4H-pyrazolo[1,5-a][1,3]diazepin-6-yl)-1-((1-methylcyclopropyl)methyl)-1H-1,2,4-triazole-3-carboxamide] are within 1.5-fold of each other in Ki: 0.557 µM for the first, 0.395 µM for the second.

Compound `CN1C(=O)[C@H](NC(=O)c2ncn(Cc3ccc(F)cc3F)n2)CCn2nc(C3CC3)cc21` [Example 298, (R)—N-(2-cyclopropyl-4-methyl-5-oxo-5,6,7,8-tetrahydro-4H-pyrazolo[1,5-a][1,3]diazepin-6-yl)-1-(2,4-difluorobenzyl)-1H-1,2,4-triazole-3-carboxamide] has a Ki of 2.56 µM.

same assay, conditions: tight-binding apparent inhibition constant; human RIP1 kinase domain (2-375) 50 nM, 50 uM ATP, 2 hours; read-out: Ki

First: CN1C(=O)[C@@H](NC(=O)c2ncn(CC3CCOC3)n2)CCn2nc(C3CC3)cc21 (stereo partly shown) [Example 480]
Second: CN1C(=O)[C@@H](NC(=O)c2ncn(Cc3cccc(Cl)c3)n2)CCn2nc(C3CC3)cc21 [Example 538]
The Ki of the first is 140-fold higher: 2.6 µM for the first, 0.019 µM for the second.

Going from `CN1C(=O)[C@@H](NC(=O)c2nc3n(n2)CCO[C@H]3c2ccccc2)COc2ccccc21` (racemic) [Example 695, rac-(8S)-8-phenyl-N-[rac-(3S)-5-methyl-4-oxo-2,3-dihydro-1,5-benzoxazepin-3-yl]-6,8-dihydro-5H-[1,2,4] triazolo[5,1-c][1,4]oxazine-2-carboxamide] to `CN1C(=O)[C@@H](NC(=O)c2nc3n(n2)CCC3c2ccccc2)COc2ccccc21` (stereo partly drawn) [Example 571, 7-phenyl-N-[(3S)-5-methyl-4-oxo-2,3-dihydro-1,5-benzoxazepin-3-yl]-6,7-dihydro-5H-pyrrolo[1,2-b][1,2,4]triazole-2-carboxamide], the Ki falls from 0.694 µM to 0.023 µM (30-fold).

First: CC(C)c1cccc2nc(C(=O)N[C@H]3CCc4cc(F)cc(F)c4NC3=O)nn12 [Example 420, (S)—N-(7,9-difluoro-2-oxo-2,3,4,5-tetrahydro-1H-benzo[b]azepin-3-yl)-5-isopropyl-[1,2,4]triazolo[1,5-a]pyridine-2-carboxamide]
Second: O=C(N[C@H]1CCc2cc(F)cc(F)c2NC1=O)c1nc2n(n1)CC[C@@H]2c1ccccc1 (single isomer, unassigned) [Example 627]
The Ki of the first is 34-fold lower: 0.00471 µM for the first, 0.16 µM for the second.

First: CN1C(=O)C(NC(=O)c2ncn(Cc3ccccc3)n2)CCn2nc(CN3CCOCC3)cc21 (stereo not shown) [Example 443, 1-benzyl-N-(4-methyl-2-(morpholinomethyl)-5-oxo-5,6,7,8-tetrahydro-4H-pyrazolo[1,5-a][1,3]diazepin-6-yl)-1H-1,2,4-triazole-3-carboxamide]
Second: Cc1nc(C)n2c1N(C)C(=O)[C@H](NC(=O)c1ncn(Cc3ccccc3)n1)CC2 [Example 608, 1-benzyl-N-(3R)-1,7,9-trimethyl-2-oxo-4,5-dihydro-3H-imidazo[1,5-a][1,3]diazepin-3-yl-1,2,4-triazole-3-carboxamide]
The Ki of the first is 1.6-fold higher: 0.299 µM for the first, 0.19 µM for the second. The second binds more tightly here.

Going from `O=C(N[C@H]1CCc2cc(F)cc(F)c2NC1=O)c1nc2n(n1)[C@@H](c1ccccc1)CC2` [Example 622, (5R)-5-phenyl-N-[(3S)-7,9-difluoro-2-oxo-1,3,4,5-tetrahydro-1-benzazepin-3-yl]-6,7-dihydro-5H-pyrrolo[1,2-b][1,2,4]triazole-2-carboxamide] to `CN1C(=O)[C@@H](NC(=O)c2nc3n(n2)[C@@H](c2ccccc2F)CC3)CCn2nccc21` [Example 668, (5R)-5-(2-fluorophenyl)-N-[(6S)-4-methyl-5-oxo-7,8-dihydro-6H-pyrazolo[1,5-a][1,3]diazepin-6-yl]-6,7-dihydro-5H-pyrrolo[1,2-b][1,2,4]triazole-2-carboxamide], the Ki rises from 0.005 µM to 0.022 µM (4.4-fold).

First: Cc1cc2n(n1)CC[C@H](NC(=O)c1ncc3c(n1)C1(CCOCC1)OC3)C(=O)N2C [Example 512, N-[(6S)-2,4-dimethyl-5-oxo-7,8-dihydro-6H-pyrazolo[1,5-a][1,3]diazepin-6-yl]spiro[5H-furo[3,4-d]pyrimidine-7,4′-tetrahydropyran]-2-carboxamide]
Second: O=C(N[C@H]1CCc2cc(F)cc(F)c2NC1=O)c1ncc2c(n1)C1(CCCC1)OC2 [Example 637, N-[(3S)-7,9-difluoro-2-oxo-1,3,4,5-tetrahydro-1-benzazepin-3-yl]spiro[5H-furo[3,4-d]pyrimidine-7,1′-cyclopentane]-2-carboxamide]
The Ki of the first is 47-fold higher: 0.84 µM for the first, 0.018 µM for the second. The second binds more tightly here.

First: CN1C(=O)[C@@H](NC(=O)c2nc3n(n2)CCC32CCOC2)COc2ccccc21 (stereo partly drawn) [Example 645, N-[(3S)-5-methyl-4-oxo-2,3-dihydro-1,5-benzoxazepin-3-yl]spiro[5,6-dihydropyrrolo[1,2-b][1,2,4]triazole-7,3′-tetrahydrofuran]-2-carboxamide]
Second: Cc1ccccc1Cn1cnc(C(=O)N[C@H]2CCn3nccc3N(C)C2=O)n1 [Example 588, 1-(o-tolylmethyl)-N-(6S)-4-methyl-5-oxo-7,8-dihydro-6H-pyrazolo[1,5-a][1,3]diazepin-6-yl-1,2,4-triazole-3-carboxamide]
The Ki of the first is 92-fold higher: 1.2 µM for the first, 0.013 µM for the second. The second binds more tightly here.

`O=C(N[C@H]1COc2cc(F)cc(F)c2NC1=O)c1nc2n(n1)[C@H](C(F)(F)F)CCC2` (single isomer, unassigned) [Example 432] and `CC(C)n1ncc2cnc(C(=O)N[C@H]3COc4cc(F)cc(F)c4NC3=O)nc21` [Example 605, 1-isopropyl-N-[(3S)-6,8-difluoro-4-oxo-3,5-dihydro-2H-1,5-benzoxazepin-3-yl]pyrazolo[3,4-d]pyrimidine-6-carboxamide] are within 1.5-fold of each other in Ki: 0.0127 µM for the first, 0.0095 µM for the second.

`CN1C(=O)[C@@H](NC(=O)c2ncn(Cc3ccccc3C#N)n2)CCn2nccc21` [Example 603, 1-[(2-cyanophenyl)methyl]-N-(6S)-4-methyl-5-oxo-7,8-dihydro-6H-pyrazolo[1,5-a][1,3]diazepin-6-yl-1,2,4-triazole-3-carboxamide] gave a Ki of 0.37 µM.
